Data on 1 molecule can be found in patent US20200062696A1, “COMPOSITIONS AND METHODS FOR INHIBITING RETICULON 4” (THE REGENTS OF THE UNIVERSITY OF CALIFORNIA, priority 2017, published 2020).

This assay concerns the target T1, C1101 in reticulon 4 (RTN4, Uniprot ID Q9NQC3-1) (Homo sapiens, UniProt Q9NQC3).
T1 construct: endogenous in cells; host or cells: SW620 colorectal cancer cell lysate
T1 sequence (Q9NQC3 1-1192): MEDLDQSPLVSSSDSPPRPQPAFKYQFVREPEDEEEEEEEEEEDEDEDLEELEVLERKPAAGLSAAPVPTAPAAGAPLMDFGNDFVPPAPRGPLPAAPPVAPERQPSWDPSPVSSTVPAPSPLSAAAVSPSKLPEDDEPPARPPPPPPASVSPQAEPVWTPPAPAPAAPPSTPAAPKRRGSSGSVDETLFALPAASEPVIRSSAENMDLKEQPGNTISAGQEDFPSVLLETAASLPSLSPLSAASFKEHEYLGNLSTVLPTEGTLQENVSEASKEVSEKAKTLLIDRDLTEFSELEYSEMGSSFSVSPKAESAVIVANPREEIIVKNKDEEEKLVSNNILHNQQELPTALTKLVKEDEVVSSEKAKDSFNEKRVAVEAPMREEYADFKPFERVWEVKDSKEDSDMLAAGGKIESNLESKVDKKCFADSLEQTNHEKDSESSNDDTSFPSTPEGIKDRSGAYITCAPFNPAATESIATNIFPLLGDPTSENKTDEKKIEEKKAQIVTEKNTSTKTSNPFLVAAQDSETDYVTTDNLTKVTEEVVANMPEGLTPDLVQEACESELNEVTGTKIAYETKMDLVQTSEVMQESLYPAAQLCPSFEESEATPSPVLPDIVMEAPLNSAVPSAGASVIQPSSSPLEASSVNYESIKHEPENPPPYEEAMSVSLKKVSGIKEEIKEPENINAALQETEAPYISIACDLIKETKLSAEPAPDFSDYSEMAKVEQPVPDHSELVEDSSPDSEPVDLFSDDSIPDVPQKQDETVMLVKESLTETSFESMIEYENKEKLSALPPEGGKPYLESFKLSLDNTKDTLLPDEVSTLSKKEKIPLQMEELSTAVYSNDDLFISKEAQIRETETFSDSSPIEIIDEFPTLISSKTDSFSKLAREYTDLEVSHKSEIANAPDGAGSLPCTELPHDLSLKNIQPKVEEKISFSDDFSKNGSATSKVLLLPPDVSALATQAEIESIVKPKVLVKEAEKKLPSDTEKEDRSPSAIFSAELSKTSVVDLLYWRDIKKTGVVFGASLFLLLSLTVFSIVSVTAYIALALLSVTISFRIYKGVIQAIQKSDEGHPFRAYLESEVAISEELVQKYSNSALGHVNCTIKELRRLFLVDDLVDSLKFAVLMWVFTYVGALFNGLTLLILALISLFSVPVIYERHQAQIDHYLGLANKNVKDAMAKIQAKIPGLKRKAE
Nature of the assay: Competitive isoTOP-ABPP against IAyne labeling in SW620 proteomes: RTN4 C1101. Format: binding. The source says: We next performed isoTOP-ABPP studies to identify the direct targets of these lead compounds. We competed either vehicle or DKM 3-30 against labeling of SW620 proteomes with a broad cysteine-reactive probe, iodoacetamide-alkyne (IAyne), followed by appending probe-labeled proteins with a biotin-azide tag bearing a TEV protease recognition site and an isotopically light (for vehicle-treated) or heavy (for fragment-treated) tags via copper catalyzed azide-alkyne cycloaddition (CuAAC)^6,9. We then combined control and treated proteomes in a 1:1 ratio, enriched probe-labeled proteins with avidin, and digested proteomes with trypsin. Avidin-enriched probe-modified tryptic peptides were released by TEV protease digestion for subsequent quantitative proteomic analysis. Through these studies, we identified the top hit for DKM 3-30 as C1101 in reticulon 4 (RTN4, Uniprot ID Q9NQC3-1) with a light to heavy ratio of 3.0 (FIG. 2A; Table 2).
IsoTOP-ABPP Analysis. IsoTOP-ABPP analyses were performed as previously described^5-7. For competitive IsoTOP-ABPP, SW620 cell lysates were pre-incubated with DMSO vehicle or DKM 3-30 (50 μM) for 30 min at 37° C. in phosphate-buffered saline (PBS), and then labeled with IAyne (100 μM) for 1 h at room temperature. […]

Turning to `C=CC(=O)Nc1ccc(Oc2ccc(Cl)cc2)cc1` [DKM 3-30, N-(4-(4-chlorophenoxy)phenyl)acrylamide], the “light to heavy ratio” value (DKM 3-30 50 μM, 30 min 37° C., then IAyne 100 μM, ratio >3 indicates bound sites) stood at 3.0. Moreover, the “Ave area ratio (light to heavy ratio), peptide YSNSALGHVNC*TIK, C1101, Q9NQC3” value (SW620 cell proteomes pre-treated with DMSO (light) or ligand 50 μM (heavy) 30 min at 37° C., then IAyne 100 μM 1h, averaged over runs) turned out to be 3.04.
